Literature values in patent US20100055178A1, “ENTERIC-COATED CREATINE COMPOSITIONS AND METHODS OF USE THEREOF” (priority 2008, published 2010).

Legend:
[1] = 5 grams, 4-6 times a day, for two or more days, oral
[2] = acidic solutions, pH 3-6

For `CN(CC(=O)O)C(=N)N` [creatine], the total creatine concentration [1] is listed as “significant increase” and the “rate of conversion of creatine to creatinine” value [2] is listed as “almost instantaneous”.
